Experimental findings from publication PMC9505538, “P-Glycoprotein (MDR1/ABCB1) Restricts Brain Accumulation of the Novel EGFR Inhibitor EAI045 and Oral Elacridar Coadministration Enhances Its Brain Accumulation and Oral Exposure” (Pharmaceuticals, 2022) are described below.

In one data set the target is T1, endogenous canine ABCB1 (Canis lupus familiaris, UniProt C0KKU9).
T1 construct: the endogenous canine ABCB1, expressed at low levels in the parental cell line; endogenous in cells; host or cells: MDCK-II parental cells (ECACC 00062107)
T1 sequence (C0KKU9 1-1281): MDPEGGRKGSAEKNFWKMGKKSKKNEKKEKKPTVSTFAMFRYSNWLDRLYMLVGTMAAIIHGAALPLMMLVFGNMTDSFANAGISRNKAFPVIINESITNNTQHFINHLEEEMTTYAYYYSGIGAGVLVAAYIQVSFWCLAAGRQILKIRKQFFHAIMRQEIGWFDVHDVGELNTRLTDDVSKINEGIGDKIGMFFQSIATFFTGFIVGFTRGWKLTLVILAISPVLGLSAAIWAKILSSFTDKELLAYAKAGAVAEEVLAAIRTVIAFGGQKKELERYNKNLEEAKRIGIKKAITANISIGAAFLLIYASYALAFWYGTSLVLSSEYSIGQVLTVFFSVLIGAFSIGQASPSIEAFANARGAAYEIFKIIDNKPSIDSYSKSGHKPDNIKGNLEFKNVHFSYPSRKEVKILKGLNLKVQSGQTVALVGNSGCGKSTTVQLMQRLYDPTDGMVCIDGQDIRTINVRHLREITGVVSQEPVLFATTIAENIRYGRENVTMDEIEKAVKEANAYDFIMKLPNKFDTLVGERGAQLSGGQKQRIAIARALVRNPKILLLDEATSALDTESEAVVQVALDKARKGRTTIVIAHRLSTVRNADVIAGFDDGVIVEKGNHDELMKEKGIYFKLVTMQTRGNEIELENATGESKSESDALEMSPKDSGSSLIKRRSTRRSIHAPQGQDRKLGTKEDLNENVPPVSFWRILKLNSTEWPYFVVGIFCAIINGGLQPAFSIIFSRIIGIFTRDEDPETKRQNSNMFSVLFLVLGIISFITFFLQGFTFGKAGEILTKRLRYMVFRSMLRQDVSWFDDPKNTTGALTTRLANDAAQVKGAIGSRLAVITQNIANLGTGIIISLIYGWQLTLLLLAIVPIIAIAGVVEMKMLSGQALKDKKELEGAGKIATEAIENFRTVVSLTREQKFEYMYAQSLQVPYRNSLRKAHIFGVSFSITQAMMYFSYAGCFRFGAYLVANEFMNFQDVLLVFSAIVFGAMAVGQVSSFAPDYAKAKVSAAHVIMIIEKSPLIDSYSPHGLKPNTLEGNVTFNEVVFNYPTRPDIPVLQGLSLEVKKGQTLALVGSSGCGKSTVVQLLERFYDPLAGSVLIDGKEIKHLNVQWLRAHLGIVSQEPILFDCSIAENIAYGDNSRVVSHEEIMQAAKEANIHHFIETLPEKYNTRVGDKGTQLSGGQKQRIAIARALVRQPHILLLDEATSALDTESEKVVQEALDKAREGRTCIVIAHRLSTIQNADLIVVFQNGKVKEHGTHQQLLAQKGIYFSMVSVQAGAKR
Put plainly: Transepithelial transport of EAI045 across MDCK-II parental cell layers. The data set is classed as in vitro ADME. As to conditions: for efflux ratio r (relative transport ratio): EAI045 5 μM. How it is done: (§1) Transport of EAI045 (5 μM) across epithelia was tested using cell layers of Madin–Darby Canine Kidney (MDCK-II) cells and derived clones expressing hABCB1, hABCG2, or mAbcg2 cDNA. […] In cells overexpressing hABCB1, there was clear transport of EAI045 in the apical direction (r = 5.5, Figure 1C). […] To evaluate the interaction between hABCG2 and mAbcg2 and EAI045, zosuquidar (5 μM) was added to inhibit any endogenous canine ABCB1. In cells overexpressing hABCG2, the BA transport of EAI045 was somewhat increased relative to the AB transport, resulting in an efflux ratio of 1.4 (Figure 1E).
(§2) Figure 1 In vitro transepithelial transport of EAI045 (5 μM) using MCDK-II parental cells (A,B) or transduced with human ABCB1 (C,D), human ABCG2 (E,F), or murine Abcg2 (G,H) cDNA. At t = 0 EAI045 was added in the donor compartment (either apical or basolateral). At 1, 2, and 4 h EAI045 was quantified in the acceptor compartment and the cumulative total transported amount per well was plotted (n = 3). Zosuquidar (5 μM) was added to inhibit the human and/or the endogenous ABCB1, while Ko143 (5 μM) was added to inhibit the human or murine ABCG2. r, relative transport ratio. […] Points, mean; bars, SD. TEXT PRINTED IN THE PICTURE: (A) no label printed: Parental: r = 1.7 | (B) no label printed: Parental + Zos.: r = 1.1 | (C) no label printed: hABCB1: r = 5.5 | (D) no label printed: hABCB1 + Zos.: r = 1.3 | (E) no label printed: hABCG2 + Zos.: r = 1.4 | (F) no label printed: hABCG2 + Zos. + Ko143: r = 1.1 | (G) no label printed: mAbcg2 + Zos.: r = 1.8 | (H) no label printed: mAbcg2 + Zos. + Ko143: r = 1.4
(§3) Madin–Darby Canine Kidney (MDCK-II) cells (ECACC 00062107) stably transduced with human (h) ABCB1, hABCG2, or mouse (m) Abcg2 cDNA were generated in our institute between 1998 and 2005. […] In short, cells were allowed to grow an intact monolayer in 3 days, which was monitored with transepithelial electrical resistance (TEER) measurements, both before and after the transport phase. […] Proper functionality of these cell lines was monitored by continual testing with a variety of drug substrates.

For a further data set, the target named is T2, murine Abcg2 (Mus musculus, UniProt Q7TMS5).
T2 construct: expressed in transfected cells; host or cells: MDCK-II cells, stably transduced, generated in the authors' institute
T2 sequence (Q7TMS5 1-657): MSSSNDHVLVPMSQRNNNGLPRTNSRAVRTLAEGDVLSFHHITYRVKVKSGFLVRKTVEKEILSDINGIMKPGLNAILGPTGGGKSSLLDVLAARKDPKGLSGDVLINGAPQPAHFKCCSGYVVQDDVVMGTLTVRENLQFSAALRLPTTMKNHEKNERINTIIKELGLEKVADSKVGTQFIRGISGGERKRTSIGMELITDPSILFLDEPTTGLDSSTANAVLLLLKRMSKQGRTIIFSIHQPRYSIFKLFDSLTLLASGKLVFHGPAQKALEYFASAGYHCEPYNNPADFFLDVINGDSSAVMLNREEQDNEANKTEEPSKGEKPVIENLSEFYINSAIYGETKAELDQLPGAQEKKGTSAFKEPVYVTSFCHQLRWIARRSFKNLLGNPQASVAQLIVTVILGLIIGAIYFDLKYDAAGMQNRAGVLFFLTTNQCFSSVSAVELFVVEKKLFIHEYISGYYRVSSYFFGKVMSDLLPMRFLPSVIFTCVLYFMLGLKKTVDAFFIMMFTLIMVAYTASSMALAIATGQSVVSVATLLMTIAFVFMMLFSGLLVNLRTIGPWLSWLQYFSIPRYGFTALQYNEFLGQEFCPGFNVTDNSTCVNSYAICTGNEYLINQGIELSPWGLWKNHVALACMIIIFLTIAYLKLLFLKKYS
Put plainly: Transepithelial transport of EAI045, MDCK-II cells transduced with murine Abcg2. The data set is classed as in vitro ADME. As to conditions: for efflux ratio r (relative transport ratio): EAI045 5 μM. How it is done:
as §1, §2, §3

Data set [1] in a line: 24 h pharmacokinetic pilot experiment in WT, Cyp3a-/- and Cyp3aXAV mice. In kind it is in vivo, mice (Mus musculus). The procedure: To determine whether EAI045 and CYP3A interact in vivo, we carried out a 24 h pharmacokinetic pilot experiment using oral EAI045 at 20 mg/kg in female WT, Cyp3a knockout (Cyp3a^-/-), and transgenic Cyp3aXAV mice (these are humanized Cyp3a^-/- mice that express the human CYP3A4 in liver and small intestine). The plasma exposure and tissue distribution of EAI045 and PIA were measured. The tmax in all strains was around 5–30 min. […] In contrast, relative to Cyp3a^-/- or WT mice, the AUC0–30min and Cmax were not changed in Cyp3aXAV mice (Supplemental Figure S8A–C). Similar results were obtained for PIA (Supplemental Figure S8D–F). While not plotted separately, the PIA/EAI045 AUC ratios were also hardly changed between the three mouse strains.
All samples were stored at −30 °C until analysis.
Differences were considered statistically significant when p < 0.05. Data are presented as mean ± SD.

As for `O=C(Nc1nccs1)C(c1cc(F)ccc1O)N1Cc2ccccc2C1=O` (stereo not drawn) [EAI045], the “efflux ratio r (relative transport ratio)” value at endogenous canine ABCB1 (parental + zosuquidar 5 μM) was found to be 1.1; at endogenous canine ABCB1 (parental, no inhibitor), 1.7; on murine Abcg2 (mAbcg2 + zosuquidar 5 μM) it was 1.8; at murine Abcg2 (mAbcg2 + zosuquidar 5 μM + Ko143 5 μM), 1.4. At endogenous canine ABCB1 (in vitro), the “transport substrate of endogenous canine ABCB1” value is “moderate transport substrate”. Moreover, the “transport by mouse Abcg2” value at murine Abcg2 (in vitro) was “at best slightly transported”. Besides, the “plasma exposure of EAI045 over 30 min (AUC0–30min), fold lower” value in data set [1] (Cyp3a-/- mice than WT mice, 20 mg/kg oral) came to 1.6 fold. In addition, in data set [1] (Cyp3aXAV mice relative to Cyp3a-/- or WT mice, 20 mg/kg oral), the “AUC0–30min and Cmax” value is given as “not changed”. The molecule also showed a tmax in data set [1] (female WT, Cyp3a-/- and Cyp3aXAV mice (all strains), EAI045 20 mg/kg oral) of 5 to 30 min.
